These results are taken from patent US20150315241A1, “Antibiotic Peptides” (priority 2007, published 2015).

This data set deals with human erythrocytes. Briefly: Hemolytic assay. Format: cell-based. The note with it: 1 h 37° C., relative to 0.1% Triton X-100, peptide concentration 600 μg/mL. The procedure: To determine whether the peptides and peptide derivatives according to the invention were toxic to mammalian cells, several peptides and peptidomimetics from Example 1 above, a positive control, and a negative control were examined for hemolytic activity. The hemolytic activity was assayed with human erythrocytes. A human erythrocyte concentrate was provided in sodium chloride […]-glucose-mannitol buffer from the Leipzig University Hospital (Leipzig, Germany). The erythrocytes were centrifuged at 1000 G and washed three times with 10 volumes of cold phosphate-buffered saline (PBS, pH 7.4). The erythrocytes were diluted to a final concentration of 1% in PBS. One hundred microliters of this human erythrocyte suspension in PBS was added to each well of a V-shaped 96-well polypropylene microtiter plate (Greiner Bio-One GmbH). […] The microtiter plate was incubated at 37° C. for 1 h and subsequently centrifuged for 10 min at 1000 G. One hundred microliters of the supernatant was transferred to a 96-well flat-bottomed polystyrene microtiter plate (Greiner Bio-One GmbH) and the absorption at 405 nm recorded in a micro plate spectrophotometer (Tecan) to evaluate the heme release. […] The hemolysis percentage was calculated by the following equation[44]: ([…])×100% with E=Extinction at 405 nm All hemolytic assays were performed in duplicates. […]

Substance “(p-tert-Octylphenoxy)polyethoxyethanol [Triton X-100 ®]” came in with a Haemolysis rate of 100%.
